This is an account of results in PMC11069494, “Production of highly cytotoxic and low immunogenic L-asparaginase from Stenotrophomonas maltophilia EMCC2297” (AMB Express, 2024).

Broadly, the Km is the substrate concentration at which the rate is half of its maximum.

The test system of the assay is T1, L-asparaginase (N-SMASP).
T1 construct: native enzyme purified from culture supernatant of chloramphenicol-selected colonies (ammonium sulfate, Sephadex G-100); single 17 kDa band on SDS-PAGE
The assay is described as follows: Nessler ammonia release assay, Lineweaver-Burk. Format: biochemical, Stenotrophomonas maltophilia. The settings on record: 0.05 M Tris-HCl pH 8.6, 37 °C.

`NC(=O)C[C@H](N)C(=O)O` [L-asparagine]: the Km was determined as 41.6 mM.
